# Measurements taken from patent publication US20210214405A1, “PEPTIDE, METHOD AND COMPOSITION FOR MELANIN POLYMERIZATION AND HAIR DARKENING” (Renorigin Innovation Institute Co., Ltd., priority 2020, published 2021).
# Test: The polymerization of melanin (melanin pellet, absorbance at 400 nm; light microscope)
# Type: biochemical
# Settings: 0.025 mg/ml melanin treated with 50 μM peptide for 24 h
# Method: 0.025 mg/ml melanin was treated with 50 μM peptide for 24 h. Data are represented as the means±SD from three independent experiments. ***p<0.001.
# 0.025 mg/ml melanin were treated with 50 μM peptides for 24 h, and then centrifuged at 10,000 g for 5 min. The supernatant was removed from the tube, leaving only the melanin pellet. The polymerization of melanin was quantified after boiling in 1 M NaOH for 1 hour and the absorbance was measured spectrophotometrically at 400 nm.
row,Sequence,melanin polymerization
1,APRKNVRWCTISQ [SEQ ID NO: 2],did not show effects on melanin polymerization
2,CTISQPEWFKCRR [SEQ ID NO: 3],did not show effects on melanin polymerization
3,RMKKLGAPSI [SEQ ID NO: 15],did not show effects on melanin polymerization
